Measured values as given in PubChem BioAssay (NCI).
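GI50 = concentration required for 50% inhibition of growth. TGI marks complete inhibition of growth.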

How the values were obtained:
Experiment in all cases: growth of human tumour cells (NCI), 384-well format
[1] = test system: OVCAR-3 ovarian
[2] = test system: NCI/ADR-RES ovarian
[3] = test system: M14 melanoma
[4] = test system: IGROV1 ovarian
[5] = test system: MOLT-4 leukemia
[6] = test system: NCI-H522 lung
[7] = test system: SNB-75 CNS
[8] = test system: K-562 leukemia
[9] = test system: NCI-H322M lung
[10] = test system: ACHN renal
[11] = test system: SK-MEL-28 melanoma
[12] = test system: SN12C renal
[13] = test system: PC-3 prostate
[14] = test system: OVCAR-8 ovarian
[15] = test system: SF-295 CNS
[16] = test system: A549 NSCLC
[17] = test system: CAKI-1 renal
[18] = test system: HL-60(TB) leukemia
[19] = test system: NCI-H460 NSCLC
[20] = test system: HOP-62 NSCLC
[21] = test system: 786-0 renal
[22] = test system: TK-10 renal
[23] = test system: A498 renal
[24] = test system: HCT-116 colon
[25] = test system: SF-539 CNS
[26] = test system: MDA-MB-468 breast
[27] = test system: MDA-MB-435 melanoma
[28] = test system: OVCAR-4 ovarian
[29] = test system: SK-OV-3 ovarian
[30] = test system: UACC-62 melanoma
[31] = test system: UACC-257 melanoma
[32] = test system: MDA-MB-231 breast
[33] = test system: COLO 205 colon
[34] = test system: HCC-2998 colon
[35] = test system: SNB-19 CNS
[36] = test system: DU-145 prostate
[37] = test system: CCRF-CEM leukemia
[38] = test system: SR leukemia
[39] = test system: SW-620 colon
[40] = test system: U251 glioblastoma
[41] = test system: HT29 colon
[42] = test system: SK-MEL-5 melanoma
[43] = test system: KM12 colon
[44] = test system: NCI-H226 lung
[45] = test system: MALME-3M melanoma
[46] = test system: HOP-92 NSCLC
[47] = test system: HCT-15 colon
[48] = test system: EKVX NSCLC
[49] = test system: MCF7 breast
[50] = test system: SK-MEL-2 melanoma
[51] = test system: HS 578T breast
[52] = test system: OVCAR-5 ovarian
[53] = test system: BT-549 breast
[54] = test system: RXF 393 renal
[55] = test system: LOX IMVI melanoma
[56] = test system: RPMI-8226 leukemia
[57] = test system: SF-268 CNS
[58] = test system: T-47D breast
[59] = test system: UO-31 renal
[60] = test system: NCI-H23 lung

In the case of Cn1ncnc1[C@H]1c2n[nH]c(=O)c3cc(F)cc(c23)N[C@@H]1c1ccc(F)cc1, the GI50 [1] is reported as > 79.7 µM, the TGI [1] is reported as > 100 µM and the GI50 [2] is reported as 17.4 µM. The TGI [2] was > 100 µM, the GI50 [3] was 2.25 µM and the TGI [3] was > 100 µM. The GI50 [4] was > 33 µM, the TGI [4] was > 100 µM and the GI50 [5] was 0.0183 µM. For the same compound, the TGI [5] was 0.145 µM, the GI50 [6] was 44.6 µM and the TGI [6] was > 100 µM. For the same compound, the GI50 [7] was 6.38 µM, the TGI [7] was 29.5 µM and the GI50 [8] was 30.7 µM. The TGI [8] was > 100 µM, the GI50 [9] was > 100 µM and the TGI [9] was > 100 µM. The GI50 [10] was 17 µM, the TGI [10] was > 100 µM and the GI50 [11] was > 90.3 µM. For the same compound, the TGI [11] was > 100 µM, the GI50 [12] was 3.72 µM and the TGI [12] was > 100 µM. The GI50 [13] was > 100 µM, the TGI [13] was > 100 µM and the GI50 [14] was 0.804 µM. The TGI [14] was > 100 µM, the GI50 [15] was 0.204 µM and the TGI [15] was 2.56 µM. The GI50 [16] was 7.83 µM, the TGI [16] was > 100 µM and the GI50 [17] was 21 µM. The TGI [17] was > 100 µM, the GI50 [18] was 0.625 µM and the TGI [18] was 1.99 µM. For the same compound, the GI50 [19] was 0.0169 µM, the TGI [19] was > 66.3 µM and the GI50 [20] was 0.228 µM. For the same compound, the TGI [20] was 8.8 µM, the GI50 [21] was > 73.7 µM and the TGI [21] was > 100 µM. The GI50 [22] was > 100 µM, the TGI [22] was > 100 µM and the GI50 [23] was 31.1 µM. For the same compound, the TGI [23] was > 100 µM, the GI50 [24] was 0.706 µM and the TGI [24] was > 100 µM. For the same compound, the GI50 [25] was 1.02 µM, the TGI [25] was > 100 µM and the GI50 [26] was 0.123 µM. The TGI [26] was 1.13 µM, the GI50 [27] was > 100 µM and the TGI [27] was > 100 µM. The GI50 [28] was > 84.8 µM, the TGI [28] was > 100 µM and the GI50 [29] was 3.82 µM. For the same compound, the TGI [29] was > 100 µM, the GI50 [30] was 14.7 µM and the TGI [30] was > 100 µM. For the same compound, the GI50 [31] was > 100 µM, the TGI [31] was > 100 µM and the GI50 [32] was > 100 µM. For the same compound, the TGI [32] was > 100 µM, the GI50 [33] was 1.87 µM and the TGI [33] was > 100 µM. The GI50 [34] was 40.3 µM, the TGI [34] was > 100 µM and the GI50 [35] was 10.9 µM. The TGI [35] was > 100 µM, the GI50 [36] was 1.38 µM and the TGI [36] was 30 µM. The GI50 [37] was 0.256 µM, the TGI [37] was 1.27 µM and the TGI [38] was 0.0102 µM. The GI50 [39] was 3.66 µM, the TGI [39] was > 100 µM and the GI50 [40] was 2.88 µM. The TGI [40] was > 100 µM, the GI50 [41] was > 100 µM and the TGI [41] was > 100 µM. For the same compound, the GI50 [42] was 41.1 µM, the TGI [42] was > 100 µM and the GI50 [43] was > 100 µM. For the same compound, the TGI [43] was > 100 µM, the GI50 [44] was 22 µM and the TGI [44] was > 100 µM. The GI50 [45] was > 64.6 µM, the TGI [45] was > 100 µM and the GI50 [46] was 46.9 µM. For the same compound, the TGI [46] was > 100 µM, the GI50 [47] was > 43.7 µM and the TGI [47] was > 100 µM. The GI50 [48] was > 78.7 µM, the TGI [48] was > 100 µM and the GI50 [49] was 1.72 µM. For the same compound, the TGI [49] was > 100 µM, the GI50 [50] was > 100 µM and the TGI [50] was > 100 µM. For the same compound, the GI50 [51] was 15.2 µM, the TGI [51] was > 100 µM and the GI50 [52] was > 100 µM. For the same compound, the TGI [52] was > 100 µM, the GI50 [53] was 2.5 µM and the TGI [53] was > 61.4 µM. The GI50 [54] was 3.29 µM, the TGI [54] was > 26.9 µM and the GI50 [55] was 2.07 µM. The TGI [55] was > 100 µM, the GI50 [56] was 6.39 µM and the TGI [56] was > 100 µM. For the same compound, the GI50 [57] was 1.39 µM, the GI50 [58] was 10.9 µM and the TGI [58] was > 100 µM. For the same compound, the GI50 [59] was 26.9 µM, the TGI [59] was > 100 µM and the GI50 [60] was 0.56 µM. For the same compound, the TGI [60] was > 47.7 µM.
